These molecules were tested against T1, human TRPM8 (Homo sapiens, UniProt Q7Z2W7) (assay: Luminescence readout assay for measuring intracellular calcium (aequorin, CHO cells expressing human TRPM8; icilin, L-menthol or cold activation)). Details: CHO cells expressing human TRPM8, icilin activation (1 μM), aequorin luminescence; read-out: hTRPM8 IC50.
T1 construct: expressed in transfected cells; host or cells: Chinese hamster ovary (CHO) cells, T-REx tetracycline-inducible expression system (Invitrogen); co-transfected with pcDNA3.1 aequorin
T1 sequence (Q7Z2W7 whole entry): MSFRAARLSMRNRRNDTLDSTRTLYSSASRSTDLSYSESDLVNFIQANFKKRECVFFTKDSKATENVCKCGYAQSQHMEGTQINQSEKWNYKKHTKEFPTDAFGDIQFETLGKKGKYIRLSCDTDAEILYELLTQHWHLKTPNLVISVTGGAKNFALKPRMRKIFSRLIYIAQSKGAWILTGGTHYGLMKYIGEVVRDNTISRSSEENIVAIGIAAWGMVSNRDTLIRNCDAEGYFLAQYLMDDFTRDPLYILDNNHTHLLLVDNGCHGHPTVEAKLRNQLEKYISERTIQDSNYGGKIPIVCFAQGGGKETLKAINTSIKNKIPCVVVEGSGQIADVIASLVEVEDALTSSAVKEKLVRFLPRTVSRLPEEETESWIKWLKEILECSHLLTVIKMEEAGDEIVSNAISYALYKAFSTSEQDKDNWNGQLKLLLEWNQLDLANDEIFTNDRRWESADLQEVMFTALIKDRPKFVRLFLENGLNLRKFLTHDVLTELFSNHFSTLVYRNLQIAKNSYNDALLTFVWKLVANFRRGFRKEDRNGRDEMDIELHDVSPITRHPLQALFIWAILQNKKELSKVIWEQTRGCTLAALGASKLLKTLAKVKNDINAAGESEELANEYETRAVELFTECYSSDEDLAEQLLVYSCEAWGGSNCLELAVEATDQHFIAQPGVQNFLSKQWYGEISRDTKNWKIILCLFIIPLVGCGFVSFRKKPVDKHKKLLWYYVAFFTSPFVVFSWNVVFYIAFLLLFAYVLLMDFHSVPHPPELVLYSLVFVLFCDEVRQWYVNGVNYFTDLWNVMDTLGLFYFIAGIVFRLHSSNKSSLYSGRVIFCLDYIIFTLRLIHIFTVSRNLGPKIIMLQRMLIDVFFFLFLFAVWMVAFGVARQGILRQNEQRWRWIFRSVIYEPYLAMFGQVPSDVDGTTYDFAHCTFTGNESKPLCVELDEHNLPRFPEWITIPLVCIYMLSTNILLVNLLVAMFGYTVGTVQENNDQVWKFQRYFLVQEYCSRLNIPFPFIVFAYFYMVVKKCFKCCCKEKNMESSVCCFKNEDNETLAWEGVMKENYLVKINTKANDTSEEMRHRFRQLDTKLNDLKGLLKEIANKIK
Type: cell-based
Description: Luminescence Readout Assay for Measuring Intracellular Calcium
A stable Chinese hamster ovary cell line expressing human TRPM8 was generated using tetracycline inducible T-REx™ expression system from Invitrogen, Inc. (Carlsbad, Calif.). […] Twenty four hours before the assay, cells were seeded in 96-well plates and TRPM8 expression was induced with 0.5 μg/ml tetracycline. On the day of the assay, culture media was removed and cells were incubated with assay buffer
Potential antagonists were added 2.5 min prior to the addition of agonist, 1 μM icilin, 100 μM L-menthol, or 1 min prior to the addition of cold buffer (<10° C.). The luminescence was measured by a CCD camera based FLASH-luminometer built by Amgen, Inc. A cooling device attached to FLASH luminometer was used for cold activation.

IC50	SMILES
12 nM	CC(O)c1ccc(C(=O)N[C@]2(c3ccc(OC(F)(F)F)c(F)c3)CCOc3cccnc32)cc1 (mixture of isomers) [Example 157, N—((S)-4-(3-fluoro-4-(trifluoromethoxy)phenyl)-3,4-dihydro-2H-pyrano[3,2-b]pyridin-4-yl)-4-((R)-1-hydroxyethyl)benzamide and N—((S)-4-(3-fluoro-4-(trifluoromethoxy)phenyl)-3,4-dihydro-2H-pyrano[3,2-b]pyridin-4-yl)-4-((S)-1-hydroxyethyl)benzamide (1:1)]
46 nM	O=C(N[C@]1(c2ccc(OC(F)(F)F)c(F)c2)CCOc2cccnc21)c1ccc(C(O)C(F)(F)F)cc1 (mixture of isomers) [Example 159, N—((S)-4-(3-fluoro-4-(trifluoromethoxy)phenyl)-3,4-dihydro-2H-pyrano[3,2-b]pyridin-4-yl)-4-((R)-2,2,2-trifluoro-1-hydroxyethyl)benzamide and N—((S)-4-(3-fluoro-4-(trifluoromethoxy)phenyl)-3,4-dihydro-2H-pyrano[3,2-b]pyridin-4-yl)-4-((S)-2,2,2-trifluoro-1-hydroxyethyl)benzamide (1:1)]
10 nM	O=C(N[C@]1(c2ccc(C(F)(F)F)cc2)CCOc2cccnc21)c1ccc2[nH]c(=O)oc2c1 (single isomer, unassigned) [Example 20]
1660 nM	O=C(N[C@]1(c2ccc(C(F)(F)F)cc2)CCOc2ccccc21)c1ccccc1 (single isomer, unassigned) [Example 28]
14 nM	O=C(NC1(c2ccc(OC(F)(F)F)cc2)CCOc2cccnc21)c1ccc2[nH]c(=O)oc2c1 (stereo not drawn) [Example 22, 2-oxo-N-(4-(4-(trifluoromethoxy)phenyl)-3,4-dihydro-2H-pyrano[3,2-b]pyridin-4-yl)-2,3-dihydrobenzo[d]oxazole-6-carboxamide]
12 nM	O=C(NC1(c2ccc(OC(F)(F)F)cc2)CCOc2cccnc21)c1ccc2oc(=O)[nH]c2c1 (stereo not drawn) [Example 23, 2-oxo-N-(4-(4-(trifluoromethoxy)phenyl)-3,4-dihydro-2H-pyrano[3,2-b]pyridin-4-yl)-2,3-dihydrobenzo[d]oxazole-5-carboxamide]
23 nM	O=C(NC1(c2ccc(Cl)c(Cl)c2)CCOc2cccnc21)c1ccc2[nH]c(=O)oc2c1 (stereo not drawn) [Example 24, N-(4-(3,4-dichlorophenyl)-3,4-dihydro-2H-pyrano[3,2-b]pyridin-4-yl)-2-oxo-2,3-dihydrobenzo[d]oxazole-6-carboxamide]
19 nM	O=C(NC1(c2ccc(Cl)c(Cl)c2)CCOc2cccnc21)c1ccc2oc(=O)[nH]c2c1 (stereo not drawn) [Example 25, N-(4-(3,4-dichlorophenyl)-3,4-dihydro-2H-pyrano[3,2-b]pyridin-4-yl)-2-oxo-2,3-dihydrobenzo[d]oxazole-5-carboxamide]
14 nM	O=C(NC1(c2ccccc2)CCOc2cccnc21)c1ccc2[nH]c(=O)oc2c1 (stereo not drawn) [Example 26, 2-oxo-N-(4-phenyl-3,4-dihydro-2H-pyrano[3,2-b]pyridin-4-yl)-2,3-dihydrobenzo[d]oxazole-6-carboxamide]
46 nM	O=C(NC1(c2ccc(C(F)(F)F)nc2)CCOc2cccnc21)c1ccc2oc(=O)[nH]c2c1 (stereo not drawn) [Example 27, 2-oxo-N-(4-(6-(trifluoromethyl)pyridin-3-yl)-3,4-dihydro-2H-pyrano[3,2-b]pyridin-4-yl)-2,3-dihydrobenzo[d]oxazole-5-carboxamide]
143 nM	O=C(NC1(c2ccc(C(F)(F)F)cc2)CCCc2cccnc21)c1ccccc1 (stereo not drawn) [Example 29, N-(8-(4-(trifluoromethyl)phenyl)-5,6,7,8-tetrahydroquinolin-8-yl)benzamide]

The remaining lines, values behind:

SMILES	IC50
O=C(N[C@]1(c2ccc(C(F)(F)F)cc2)CCOc2cccnc21)c1ccccc1 (single isomer, unassigned) [Example 1]	14 nM
O=C(N[C@]1(c2ccc(C(F)(F)F)cc2)CCOc2cccnc21)c1ccc(F)cc1 (single isomer, unassigned) [Example 2]	86 nM
O=C(N[C@]1(c2ccc(Cl)c(Cl)c2)CCOc2cccnc21)c1ccccc1 (single isomer, unassigned) [Example 3]	25 nM
O=C(N[C@]1(c2ccc(C(F)(F)F)cc2)CCOc2cccnc21)c1ccc(O)cc1 (single isomer, unassigned) [Example 4]	9 nM
COc1ccc(C(=O)N[C@]2(c3ccc(C(F)(F)F)cc3)CCOc3cccnc32)cc1 (single isomer, unassigned) [Example 5]	21 nM
O=C(N[C@]1(c2ccc(Cl)cc2)CCOc2cccnc21)c1ccccc1 (single isomer, unassigned) [Example 14]	91 nM
O=C(N[C@]1(c2ccc(Cl)c(F)c2)CCOc2cccnc21)c1ccccc1 (single isomer, unassigned) [Example 15]	54 nM
O=C(N[C@]1(c2ccc(F)cc2)CCOc2cccnc21)c1ccccc1 (single isomer, unassigned) [Example 16]	357 nM
O=C(N[C@]1(c2cccc(OC(F)(F)F)c2)CCOc2cccnc21)c1ccccc1 (single isomer, unassigned) [Example 17]	60 nM
Cc1ccc([C@@]2(NC(=O)c3ccccc3)CCOc3cccnc32)cc1 (single isomer, unassigned) [Example 18]	162 nM
O=C(N[C@]1(c2ccc(C(F)(F)F)c(F)c2)CCOc2cccnc21)c1ccccc1 (single isomer, unassigned) [Example 19]	12 nM
O=C(NC1(c2ccc(OC(F)(F)F)c(F)c2)CCOc2cccnc21)c1ccc(F)cc1 (stereo not drawn) [Example 6, 4-fluoro-N-(4-(3-fluoro-4-(trifluoromethoxy)phenyl)-3,4-dihydro-2H-pyrano[3,2-b]pyridin-4-yl)benzamide]	34 nM
O=C(NC1(c2ccc(OC(F)(F)F)c(F)c2)CCOc2cccnc21)c1ccccc1 (stereo not drawn) [Example 7, N-(4-(3-fluoro-4-(trifluoromethoxy)phenyl)-3,4-dihydro-2H-pyrano[3,2-b]pyridin-4-yl)benzamide]	32 nM
O=C(NC1(c2ccc(OC(F)(F)F)cc2)CCOc2cccnc21)c1ccc(F)cc1 (stereo not drawn) [Example 8, 4-fluoro-N-(4-(4-(trifluoromethoxy)phenyl)-3,4-dihydro-2H-pyrano[3,2-b]pyridin-4-yl)benzamide]	75 nM
O=C(NC1(c2ccc(OC(F)(F)F)cc2)CCOc2cccnc21)c1ccccc1 (stereo not drawn) [Example 9, N-(4-(4-(trifluoromethoxy)phenyl)-3,4-dihydro-2H-pyrano[3,2-b]pyridin-4-yl)benzamide]	38 nM
O=C(NC1(c2ccc(Cl)c(Cl)c2)CCOc2cccnc21)c1ccc(F)cc1 (stereo not drawn) [Example 10, N-(4-(3,4-dichlorophenyl)-3,4-dihydro-2H-pyrano[3,2-b]pyridin-4-yl)-4-fluorobenzamide]	163 nM
O=C(NC1(c2ccccc2)CCOc2cccnc21)c1ccc(F)cc1 (stereo not drawn) [Example 11, 4-fluoro-N-(4-phenyl-3,4-dihydro-2H-pyrano[3,2-b]pyridin-4-yl)benzamide]	2570 nM
O=C(NC1(c2ccccc2)CCOc2cccnc21)c1ccccc1 (stereo not drawn) [Example 12, N-(4-phenyl-3,4-dihydro-2H-pyrano[3,2-b]pyridin-4-yl)benzamide]	2070 nM
O=C(NC1(c2ccc(C(F)(F)F)nc2)CCOc2cccnc21)c1ccccc1 (stereo not drawn) [Example 13, N-(4-(6-(trifluoromethyl)pyridin-3-yl)-3,4-dihydro-2H-pyrano[3,2-b]pyridin-4-yl)benzamide]	883 nM
